Measurements as given in the Kinase Knowledgebase extract (Sharma et al. 2016).

Biological target: PIK3CG (human) (UniProt P48736)
Assay: Inhibition of PIK3CG Kinase Activity

Sequence of PIK3CG (human) (P48736 whole entry, looked up): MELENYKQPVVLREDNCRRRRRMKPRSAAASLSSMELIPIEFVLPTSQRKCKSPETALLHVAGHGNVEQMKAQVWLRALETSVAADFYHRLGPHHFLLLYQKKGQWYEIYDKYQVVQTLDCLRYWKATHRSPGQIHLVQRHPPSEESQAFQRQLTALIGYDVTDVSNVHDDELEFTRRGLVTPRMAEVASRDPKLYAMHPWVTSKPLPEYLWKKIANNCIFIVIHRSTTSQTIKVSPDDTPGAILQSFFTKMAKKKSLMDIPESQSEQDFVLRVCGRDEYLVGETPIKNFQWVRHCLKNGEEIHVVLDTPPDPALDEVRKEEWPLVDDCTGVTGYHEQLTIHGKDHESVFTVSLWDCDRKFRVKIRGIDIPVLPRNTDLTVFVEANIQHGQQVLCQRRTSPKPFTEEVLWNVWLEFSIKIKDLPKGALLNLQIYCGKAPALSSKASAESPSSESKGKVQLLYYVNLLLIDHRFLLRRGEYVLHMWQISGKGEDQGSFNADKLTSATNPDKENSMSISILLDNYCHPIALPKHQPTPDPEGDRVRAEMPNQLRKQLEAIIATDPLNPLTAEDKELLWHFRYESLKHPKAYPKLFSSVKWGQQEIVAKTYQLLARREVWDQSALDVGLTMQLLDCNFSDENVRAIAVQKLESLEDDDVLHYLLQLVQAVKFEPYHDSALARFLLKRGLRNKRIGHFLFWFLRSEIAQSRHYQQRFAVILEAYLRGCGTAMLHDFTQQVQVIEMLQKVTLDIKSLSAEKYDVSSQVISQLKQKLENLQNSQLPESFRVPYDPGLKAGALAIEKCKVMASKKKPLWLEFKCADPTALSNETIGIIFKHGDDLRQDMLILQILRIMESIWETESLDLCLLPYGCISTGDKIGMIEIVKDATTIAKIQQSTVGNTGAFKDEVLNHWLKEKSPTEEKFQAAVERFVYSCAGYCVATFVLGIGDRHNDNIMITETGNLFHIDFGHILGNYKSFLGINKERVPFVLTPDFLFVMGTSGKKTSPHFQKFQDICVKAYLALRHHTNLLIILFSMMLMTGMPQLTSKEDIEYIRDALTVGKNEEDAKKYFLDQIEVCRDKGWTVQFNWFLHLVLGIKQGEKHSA

Ki | SMILES
< 100 nM | COc1cc(-c2cc(C)c3c(n2)CN(c2ccnc(OCC(F)(F)F)c2)C3=O)cnc1OC
< 100 nM | COc1ncc(-c2cc(C)c3c(n2)CN(c2ccn(C(C)(C)C#N)n2)C3=O)cc1OCC(F)F
< 100 nM | CCOc1cc(-c2cc(C)c3c(n2)CN(c2ccon2)C3=O)cnc1OCC
100 to 490 nM | COc1cc(-c2ccc3c(n2)C(N2CC(OC)C2)N(c2cnn(CC(F)(F)F)c2)C3=O)cnc1OC (stereo not given)
< 100 nM | Cc1cc(-c2cnc(N)c(OC(F)F)c2)nc2c1C(=O)N(c1cnn(CC(F)(F)F)c1)C2
< 100 nM | COc1cncc(-c2cc(C)c3c(n2)CN(c2ccn(C4COC4)n2)C3=O)c1
< 100 nM | COc1ccc(-c2cc(C)c3c(c2)CN(c2cnn(CC(F)(F)F)c2)C3=O)cc1OC
< 100 nM | Cc1cc(-c2cncc(OC(F)F)c2)nc2c1C(=O)N(c1cnn(CC(F)(F)F)c1)[C@H]2C
< 100 nM | COc1cc(-c2cc(C)c3c(c2)CN(c2cnn(CC(F)(F)F)c2)C3=O)cnc1OC
< 100 nM | COc1cc(-c2cc(C)c3c(n2)CN(c2cncc(CN(C)C)c2)C3=O)cnc1OC
< 100 nM | COc1ncc(-c2ccc3c(n2)[C@@H](C)N(c2cnn(CC(F)(F)F)c2)C3=O)cc1O
< 100 nM | Cc1cc(-c2cncc(NS(=O)(=O)C(C)C)c2)nc2c1C(=O)N(c1cnn(CC(F)(F)F)c1)C2(C)C
< 100 nM | COc1ccc(-c2cc(C)c3c(c2)CN(c2cnn(CC(F)(F)F)c2)C3=O)nc1OC
< 100 nM | Cc1cc(-c2cccc(OC(F)(F)F)c2)nc2c1C(=O)N(c1cnn(CC(F)(F)F)c1)C2
< 100 nM | COc1cc(-c2ccc3c(n2)CN(c2cnn(C(C)C)c2)C3=O)cnc1OC
100 to 490 nM | COc1cncc(-c2cc(C)c3c(n2)C(C)N(c2cnccn2)C3=O)c1 (stereo not given)
< 100 nM | COc1cc(-c2ccc3c(n2)CN(c2cnn(Cc4cccnc4)c2)C3=O)cnc1OC
< 100 nM | COCCOc1ncc(-c2cc(C)c3c(n2)[C@@H](C)N(c2ccn(C)n2)C3=O)cc1OC
< 100 nM | COc1cc(-c2cc(C)c3c(n2)CN(c2cnn(CC(F)(F)F)c2)C3=O)ccc1Cl
< 100 nM | COc1ncc(-c2cc(C)c3c(n2)CN(c2cnn(CC(F)(F)F)c2)C3=O)cc1CO
< 100 nM | COc1ccc(-c2cc(C)c3c(n2)C(C)(C)N(c2cnn(CC(F)F)c2)C3=O)nc1OC
< 100 nM | Cc1cc(-c2cccnc2)nc2c1C(=O)N(c1cnn(CC#N)c1)C2
< 100 nM | COc1cc(-c2cc(C)c3c(n2)C(C)(C)N(c2cnn(CC(F)(F)F)c2)C3=O)cnc1OC(C)C
< 100 nM | COc1ccc(-c2ccc3c(n2)CN(c2cnn(CC#N)c2)C3=O)c(OC)n1
100 to 490 nM | CCN(C)C(=O)COc1ccc(N2Cc3nc(-c4cnc(OC)c(OC)c4)ccc3C2=O)cn1
< 100 nM | COc1cncc(-c2cc(C)c3c(n2)CN(c2ccn([C@H]4CCOC4)n2)C3=O)c1
100 to 490 nM | COc1cc(-c2cc(C)c3c(n2)CN(c2ncccn2)C3=O)cnc1OC
< 100 nM | COc1ncc(-c2cc(C)c3c(n2)C(C)(C)N(c2cnn(CC(F)(F)F)c2)C3=O)cc1C(=O)NC1CC1

Ki | SMILES
< 100 nM | Cc1cc(-c2cncc(OCC(F)F)c2)nc2c1C(=O)N(c1cnn(CC(F)(F)F)c1)C21CCOCC1
< 100 nM | CCO[C@]1(C)c2nc(-c3cnc(OC)c(OC)c3)cc(C)c2C(=O)N1c1cnn(CC(F)(F)F)c1
< 100 nM | COc1cc(-c2ccc3c(n2)CN(c2ccnc(CC#N)c2)C3=O)cnc1OC
< 100 nM | CCn1ccc(N2C(=O)c3c(C)cc(-c4cncc(OC)c4)nc3[C@@H]2C)n1
< 100 nM | COc1cc(-c2cc(C)c3c(n2)[C@@](C)(O)N(c2cnn(CC(F)(F)F)c2)C3=O)cnc1OC
< 100 nM | Cc1cc(-c2cncc(OCC(F)F)c2)nc2c1C(=O)N(c1cnn(CC(F)F)c1)C2
< 100 nM | CCO[C@@H]1c2nc(-c3cnc(OC)c(OC)c3)cc(C)c2C(=O)N1c1cnn(CC(F)(F)F)c1
< 100 nM | COc1cc(-c2ccc3c(n2)CN(c2ccc(=O)n(CC(F)(F)F)c2)C3=O)cnc1OC
< 100 nM | Cc1cc(-c2cncc(C(=O)O)c2)nc2c1C(=O)N(c1ccn([C@H]3CCOC3)n1)C2
< 100 nM | COc1ncc(-c2cc(C)c3c(n2)C(C)(C)N(c2cnn(CC(F)(F)F)c2)C3=O)cc1C(=O)N[C@@H]1CCOC1
< 100 nM | COc1cc(-c2cc(C)c3c(n2)CN(c2ccc(OCC(F)F)nc2)C3=O)cnc1OC
< 100 nM | Cc1cc(-c2cncc(OCC(F)(F)F)c2)nc2c1C(=O)N(c1cnn(CC(F)F)c1)C2
< 100 nM | CCOc1ncc(-c2ccc3c(n2)C(C)N(c2cnn(CC(F)(F)F)c2)C3=O)cc1OC (stereo not given)
< 100 nM | COc1cc(-c2ccc3c(c2)CN(c2cnn(CC(F)(F)F)c2)C3=O)cnc1OC
< 100 nM | COc1cc(-c2ccc3c(n2)CN(c2cnn(Cc4cc(C)on4)c2)C3=O)cnc1OC
< 100 nM | COc1ncc(-c2cc(C)c3c(n2)CN(c2ccn(C4COC4)n2)C3=O)cc1OC(C)C
< 100 nM | COc1cc(-c2ccc3c(c2)CN(c2ccn(C)n2)C3=O)cnc1OC
< 100 nM | COCCOCCOc1ncc(-c2cc(C)c3c(c2)CN(c2cnn(CC#N)c2)C3=O)cc1OC
< 100 nM | COc1cc(-c2ccc3c(n2)[C@H](N2CCOCC2)N(c2cnn(CC(F)(F)F)c2)C3=O)cnc1OC
100 to 490 nM | CCOC(=O)C(F)(F)c1ccc(N2Cc3nc(-c4cnc(OC)c(OC)c4)ccc3C2=O)cn1
< 100 nM | COc1ncc(-c2cc(C)c3c(n2)CN(c2cn[nH]c2)C3=O)cc1OCC1CC1
< 100 nM | CCC1c2nc(-c3cnc(OC)c(OC)c3)ccc2C(=O)N1c1cnn(CC(F)(F)F)c1 (stereo not given)
< 100 nM | CCNC(=O)c1cc(-c2cc(C)c3c(n2)C(C)(C)N(c2cnn(CC(F)(F)F)c2)C3=O)cnc1C
< 100 nM | COc1cc(-c2ccc3c(n2)CN(c2cnn(CC(N)=O)c2)C3=O)cnc1OC
< 100 nM | COc1cc(-c2ccc3c(n2)[C@@H](C)N(c2cn[nH]c2)C3=O)cnc1OC
< 100 nM | C=C(F)Cn1cc(N2C(=O)c3ccc(-c4cnc(OC)c(OC)c4)nc3C2(C)C)cn1
< 100 nM | COc1cc(-c2ccc3c(n2)CN(c2cnn(CC4CC4)c2)C3=O)cnc1OC

More lines, now with the values behind:

SMILES | Ki
Cc1cc(-c2cncc(OC(F)F)c2)cc2c1C(=O)N(c1cnn(CC(F)(F)F)c1)C2 | < 100 nM
COc1cc(-c2ccc3c(c2)CN(c2ccn(CC(N)=O)n2)C3=O)cnc1OC | 100 to 490 nM
COc1ncc(-c2cc(C)c3c(n2)CN(c2cnn(CC(F)(F)F)c2)C3=O)cc1O | < 100 nM
Cc1cc(-c2cncc(C(=O)NC(C)(C)C)c2)nc2c1C(=O)N(c1cnn(CC(F)(F)F)c1)C2 | < 100 nM
COc1cncc(-c2cc(C)c3c(n2)CN(c2cn(CC(F)(F)F)cn2)C3=O)c1 | < 100 nM
COc1cc(-c2ccc3c(n2)[C@@H](C)N(c2ccnc(CC#N)c2)C3=O)cnc1OC | < 100 nM
COc1cc(-c2ccc3c(n2)CN(c2cc(C)n(CC(F)(F)F)n2)C3=O)cnc1OC | < 100 nM
COc1ncc(-c2ccc3c(n2)[C@H](C)N(c2cnn(CC(F)(F)F)c2)C3=O)cc1O | < 100 nM
Cc1cc(-c2cncc(C(F)(F)F)c2)cc2c1C(=O)N(c1cnn(CC(F)(F)F)c1)C2C (stereo not given) | < 100 nM
Cc1cc(-c2ccc(Cl)c(O)c2)nc2c1C(=O)N(c1cnn(CC(F)(F)F)c1)C2 | < 100 nM
CCOc1cncc(-c2cc(C)c3c(n2)C(C)(C)N(c2cnn(CC(F)(F)F)c2)C3=O)c1 | < 100 nM
COCc1cc(N2Cc3nc(-c4cnc(OC)c(OC)c4)ccc3C2=O)n[nH]1 | < 100 nM
COc1cc(-c2ccc3c(c2)CN(c2ccn(CC#N)n2)C3=O)cnc1OC | < 100 nM
COCCn1cc(N2Cc3nc(-c4cnc(OC)c(OC)c4)ccc3C2=O)cn1 | < 100 nM
Cc1cc(-c2cncc(OC(F)F)c2)nc2c1C(=O)N(c1ccnc(OCC(F)F)c1)C2 | < 100 nM
COc1ncc(-c2ccc3c(n2)CN(c2cnn(CC(F)(F)F)c2)C3=O)cc1OC(F)F | < 100 nM
COc1cc(-c2ccc3c(n2)CN(c2cnn(Cc4ccc(Cl)nc4)c2)C3=O)cnc1OC | < 100 nM
COc1cc(-c2cc(C)c3c(n2)C2(CCCO2)N(c2cnn(CC(F)(F)F)c2)C3=O)cnc1OC (stereo not given) | < 100 nM
COc1cc(N2Cc3nc(-c4cnc(OC)c(OC)c4)cc(C)c3C2=O)ccn1 | < 100 nM
COc1cc(-c2cc(C)c3c(n2)C(C)(C)N(c2cnn(C[C@H](C)O)c2)C3=O)cnc1OC | < 100 nM

SMILES | Ki
COc1cc(-c2ccc3c(n2)CN(c2cnn(CC(F)F)c2)C3=O)cnc1OC | < 100 nM
Cc1cc(-c2cnc(C)c(OCC(F)F)c2)nc2c1C(=O)N(c1cnn(CC(F)F)c1)C2C (stereo not given) | < 100 nM
CCOc1ncc(-c2cc(C)c3c(n2)C(CC)N(c2cnn(CC(F)(F)F)c2)C3=O)cc1OC (stereo not given) | < 100 nM
COc1cc(-c2ccc3c(n2)C(C)N(c2ccnc(C(C)(C)C#N)c2)C3=O)cnc1OC (stereo not given) | 100 to 490 nM
C=C(F)Cn1cc(N2C(=O)c3c(C)cc(-c4cncc(OC)c4)nc3C2(C)C)cn1 | < 100 nM
Cc1cc(-c2cncc(C(=O)N3CCC[C@@H]3C)c2)nc2c1C(=O)N(c1cnn(CC(F)(F)F)c1)C2(C)C | 100 to 490 nM
COc1cc(-c2ccc3c(n2)CN(c2cnn(C4CCCCC4O)c2)C3=O)cnc1OC (stereo not given) | 100 to 490 nM
COc1cncc(-c2cc(C)c3c(n2)C(C)N(c2cnn(CC(F)(F)F)c2)C3=O)c1 (stereo not given) | < 100 nM
COc1cncc(-c2cc(C)c3c(n2)[C@H](C)N(c2ccn(CC(C)(C)O)n2)C3=O)c1 | < 100 nM
Cc1cc(-c2cncc(Cl)c2)nc2c1C(=O)N(c1cnn(CC#N)c1)C2 | < 100 nM
COc1cncc(-c2cc(C)c3c(n2)C(C)(C)N(c2cnn(CC#N)c2)C3=O)c1 | < 100 nM
CCn1cc(N2Cc3nc(-c4cncc(OCC(F)(F)F)c4)cc(C)c3C2=O)cn1 | < 100 nM
Cc1cc(-c2cncc(OC(F)F)c2)nc2c1C(=O)N(c1cnn(C)c1)C2C (stereo not given) | < 100 nM
CC[C@@]1(OC)c2nc(-c3cnc(OC)c(OC)c3)cc(C)c2C(=O)N1c1cnn(CC(F)(F)F)c1 | < 100 nM
COc1cncc(-c2cc(C)c3c(n2)C2(CCCO2)N(c2cnn(CC(F)(F)F)c2)C3=O)c1 (stereo not given) | < 100 nM
CCn1ccc(N2C(=O)c3c(C)cc(-c4cncc(OC)c4)nc3[C@H]2C)n1 | < 100 nM
COc1cc(-c2cc(C)c3c(n2)CN(c2ccnc(OCC(F)F)c2)C3=O)cnc1OC | < 100 nM
COc1cncc(-c2cc(C)c3c(n2)[C@]2(CCOC2)N(c2cnn(CC(F)(F)F)c2)C3=O)c1 | < 100 nM
COc1cncc(N2Cc3nc(-c4cnc(OC)c(OC)c4)ccc3C2=O)c1 | < 100 nM
CCc1cncc(-c2cc(C)c3c(n2)C(C)(C)N(c2cnn(CC(F)(F)F)c2)C3=O)c1 | < 100 nM
